Measurements taken from patent US10272053B2, “Nanoparticle targeted drug delivery to the lungs using extra-testicular sertoli cells” (UNIVERSITY OF SOUTH FLORIDA, priority 2008, dated 2019).

Assay: Quantification of curcumin in lungs of injected asthmatic mice (UV absorbance)
Format: in vivo, mouse
Settings: IV SCET
Experimental: […] Each lung was placed in a labeled container with 1 ml PBS. The lungs were then sonicated for 10 seconds by the Sonic Dismembrinator 60 (Fisher Scientific) to lyse the Sertoli cells and release the curcumin nanoparticles. The curcumin was then separated from the nanoparticles by adding 500 μl DMSO to each container. The suspension was then centrifuged at 1200 rpm for 10 minutes and the supernatant was collected. A UV spectrum was collected from each supernatant sample.
In addition to normal mice, some female C57BL/6 and BALB/c mice were sensitized by intraperitoneal injection (i.p.) of 10 μl ovalbumin (OVA) with alum as previously described to mimic acute allergic asthma (Weggman, M. Animal models of chronic experimental asthma—strategies for the identification of new therapeutic targets. Occup Med Toxicol. 3 (Suppl 1) (2008); Temelkovski J, Hogan S P, Shepherd D P, Foster P S, Kumar R K. An improved murinemodel of asthma: selective airway inflammation, epithelial lesions and increased methacholine responsiveness following chronic exposure to aerosolised allergen. Thorax. 10, 849-56 (1998)). The mice were challenged weekly for 3 weeks with an intranasal injection (i.n.) of 25 μl OVA (20 mg/ml). One hour after the last i.n. challenge, the treatment group (n=7) was injected via the tail vein with pre-loaded, pre-labeled SCET (8×10^6) that contained nanoparticles coupled with […] curcumin dose. Others asthmatic mice were not injected with SCET to serve as untreated controls (n=6). […]
Each lung was placed in a labeled container with 1 ml PBS. The lungs were then sonicated for 10 seconds by the Sonic Dismembrinator 60 (Fisher Scientific) to lyse the Sertoli cells and release the curcumin nanoparticles. The curcumn was then separated from the nanoparticles by adding 500 μl DMSO to each container. The suspension was then centrifuged at 1200 rpm for 10 minutes and the supernatant was collected. A UV spectrum was collected from each supernatant sample. Data was presented for absorbance assays of Sertoli cells, nanoparticles and curcumin from all samples from all mice, including a sample of the nanoparticle pre-loaded, pre-labeled SC injectable (8×10^6) were replicated and the mean values of SCs, nanoparticles and curcumin were expressed as a percentage of the mean value determined in the pre-loaded, pre-labeled Sertloli cell injectable (8×10^6)

percentage of injected curcumin load present in the lungs (15 minutes post-injection): 80%
delivery of curcumin throughout the pulmonary tissue (time not stated): 80%
percentage of total curcumin in the injected SCET found in the lungs (asthmatic mice, 25 hours following injection): 80%
percentage of injected curcumin load present in the lungs (asthmatic mice, one hour post-injection): 80%
SMILES: COc1cc(/C=C/C(=O)CC(=O)/C=C/c2ccc(O)c(OC)c2)ccc1O [curcumin]
